Results reported in patent publication US12090225B2 (Avalyn Pharma Inc., priority 2018, dated 2024).
Structures can show the parent of a compound that is named as a salt.

What was measured:
[1] = Dynamic Vapour Sorption (DVS) hygroscopicity; assay type: physicochemical; conditions: for DVS mass uptake at 90% RH: 25° C., uptake from input material; for Hygroscopicity: DVS
Method: Dynamic Vapour Sorption (DVS). Approximately, 10 mg of sample was placed into a mesh vapour sorption balance pan and loaded into a DVS-1 or DVS Advantage dynamic vapour sorption balance by Surface Measurement Systems. The sample was subjected to a ramping profile from 40-90% relative humidity (RH) at 10% increments, maintaining the sample at each step until a stable weight had been achieved (dm/dt 0.004%, minimum step length 30 minutes, maximum step length 500 minutes) at 25° C. After completion of the sorption cycle, the sample was dried using the same procedure to 0% RH and then a second sorption cycle back to 40% RH. Two cycles were performed. The weight change during the sorption/desorption cycles were plotted, allowing for the hygroscopic nature of the sample to be determined. XRPD analysis was then carried out on any solid retained.

[2] = Pattern stability screen of potential salts (40° C./75% RH, XRPD); assay type: physicochemical
Method: XRPD analysis was carried out on a PANalytical X'pert pro, scanning the samples between 3 and 35° 20. The material was gently compressed and loaded onto a multi-well plate with Kapton or Mylar polymer film to support the sample.
Primary Salt Screening. […] The solvent systems shown in Table were selected for salt screening. For sulfonic acids MEK was used instead of methanol and acetone:water 50:50 (v/v) was used instead of IPA:water to avoid any potential genotoxic impurities. Ca. […] If the acid was insoluble in the selected solvent, a slurry was used. If the acid was a liquid it was added to the API slurry from a stock solution in the allocated solvent. The mixtures of API/counterion/solvent were temperature cycled between ambient and 40° C. in 4 hour cycles for ca. 3 days. Any solids present were isolated and allowed to dry at ambient conditions, for ca. 30 minutes prior to analysis by XRPD. Where solutions were obtained they were evaporated to obtain solid material.

[3] = 7 day stability testing of salts (40° C./75% RH, 80° C., ambient light; HPLC purity, XRPD); assay type: physicochemical; conditions: listed as HCl salt
Method: High Performance Liquid Chromatography-Ultraviolet Detection (HPLC-UV): Instrument: Dionex Ultimate 3000; Column: Acquity CSH C18 100 mm×2.1 mm 1.7 μm; Column Temperature: 50° C.; Autosampler Temperature: Ambient; UV wavelength: 210 nm; Injection Volume: 4 μL; Flow Rate: 0.6 mL/min; Mobile Phase A: 0.1% formic acid in water; Mobile Phase B: 0.1% formic acid in acetonitrile. The HPLC method used the gradient in Table 2.
FT-IR appeared to be consistent with the structure. […] The material was physically stable to changes in temperature and humidity when stored for one week.
A new, poorly crystalline pattern was produced when stored at 40° C./75% RH—Pattern 4.
Purity of these materials remained unchanged (as shown in Table) apart from the sample stored at ambient light, where a 0.5% drop in purity was observed.

[4] = Disproportionation/hydration studies (pH, XRPD pattern); assay type: physicochemical; conditions: for pH Pre-Agitation: listed as HCl salt
Description: No XRPD data could be compiled on the hydration or disproportionation of the salt due to the high solubility in water and acetone/water mixtures.
The salt only remained Pattern 1 at 0.3 aw. New patterns 6 and 7 are likely hydrated due to the high water activity conditions for production.

[5] = Aqueous solubility assessment of salts; assay type: physicochemical
[6] = Water pH titration; assay type: physicochemical; conditions: 2 mg/mL Nintedanib slurry HCl sample
[7] = Citrate buffer formulation; assay type: physicochemical
[8] = 0.5 mg/mL solubility assessment (filtered/unfiltered); assay type: physicochemical; conditions: 0.5 mg/mL experiment; for pH: listed as HCl
[9] = Solid state and chemical stability of nintedanib HBr and HCl salts through 6 months; assay type: physicochemical; conditions: for Weight loss: TGA/DSC
Description: Table 24 and Table 25 summarize the total impurities (by HPLC), polymorphic form (by X-ray powder diffraction) and, where applicable, weight loss (by TGA/DSC) for both the HCl and HBr salt forms. […] There were no changes in polymorphic form for both salt forms stored at 25 C/60% RH condition.

[10] = HBr and HCl salts-filter compatibility study; assay type: physicochemical; conditions: for visual appearance after filtration: 3% PG solution, glass vials, ambient room condition; for Visual appearance: listed as Nintedanib HCl Salt
Method: HBr and HCl salts-filter compatibility study: this study was conducted to assess the compatibility of the HBr and the HCl salts with various membrane filters. […] The glass vials were stored at ambient room condition and visual appearance was periodically inspected.

[11] = Feasibility assessment of ready-to-use nintedanib HBr, HCl and esylate formulations; assay type: physicochemical; conditions: NaCl at 10 mM; by itself
[12] = Inhaled pharmacokinetics of nintedanib salt forms (intratracheal); assay type: in vivo, C57BL/6 mice; conditions: female, C57BL/6, mouse, lung, inhaled or intranasal, 1 mg/kg, 1 mg/kg (base equivalent) IT, mice; read-out: lung half-life
[13] = Water Activity 0.3 (acetone/water)
[14] = Water Activity 0.6 (acetone/water)
[15] = Water Activity 0.9 (acetone/water)
[16] = 0.5 mg/mL citrate buffer experiments, listed as HCl
[17] = 40° C./75% RH, 2 months, listed as Nintedanib HCl salt
[18] = 40° C./75% RH, 6 months, listed as Nintedanib HCl salt

COC(=O)c1ccc2c(c1)NC(=O)/C2=C(\Nc1ccc(N(C)C(=O)CN2CCN(C)CC2)cc1)c1ccccc1 [Nintedanib HCl]
DVS mass uptake at 90% RH ([1]; listed as HCl): further 2.2% uptake up
DVS mass uptake at 90% RH ([1]; listed as HCl salt): ca. 2.2%
Hygroscopicity ([1]; listed as HCl): Hygroscopic
Hygroscopicity ([1]; listed as HCl salt): hygroscopic
Post-DVS XRPD pattern ([1]; listed as HCl): Pattern unchanged
Post-DVS XRPD pattern ([1]; listed as HCl salt): remain unchanged
XRPD pattern after 72 hrs 40° C./75% RH ([2]; Initial pattern 1): 1
XRPD pattern after 72 hrs 40° C./75% RH ([2]; Initial pattern 2): 2
XRPD pattern after 72 hrs 40° C./75% RH ([2]; Initial pattern 3, listed as HCl): 1
XRPD pattern after 7 day stability testing ([3]; 40° C./75% RH, 80° C. and ambient light (all conditions)): remain pattern 1
Purity (%) ([3]; 40° C./75% RH, 7 day stability testing): 99.9%
Purity (%) ([3]; 80° C., 7 day stability testing): 99.9%
Purity (%) ([3]; Ambient, 7 day stability testing): 99.9%
Purity (%) ([3]; Input): 99.9%
pH Post-Agitation [4, 13]: 2.45
pH Pre-Agitation [4, 13]: 1.94
pH Post-Agitation [4, 14]: 2.33
pH Pre-Agitation [4, 14]: 2.32
pH Post-Agitation [4, 15]: 2.24
pH Pre-Agitation [4, 15]: 1.89
pH Post-Agitation ([4]; Water Activity 1.0 (water)): 2.33
pH Pre-Agitation ([4]; Water Activity 1.0 (water)): 2.05
pH at 6 h ([5]; salt in water, after agitation): 2.26
pH at 18 h ([5]; salt in water, after agitation): 2.08
Initial pH ([5]; salt in water, solubility assessment): 2.22
solubility ([5]; thermodynamic from solid, deionized water added to 20 mg of salt, read-out: solubility in water): ~11 mg/mL
pH upon cooling [6]: 4.76
concentration of the filtered sample ([6]; by HPLC): 1700 µg/mL
Initial pH [7, 16]: 4.84
pH 1 h [7, 16]: 4.80
attempt to solubilize in citrate buffer ([7]; pH 4.75 citrate buffer, ~1.7 mg/mL (Nintedanib)): unsuccessful
concentration for filtered sample compared to unfiltered ([8]; listed as HCl salt): 99%
pH ([8]; Filtered): 5.36
pH ([8]; Unfiltered): 5.28
Total impurities ([9]; 25° C./60 % RH, 1 week, listed as Nintedanib HCl salt): 0.41%
Total impurities ([9]; 25° C./60 % RH, 2 months, listed as Nintedanib HCl salt): 0.36%
Total impurities ([9]; 25° C./60 % RH, 4 weeks, listed as Nintedanib HCl salt): 0.36%
Total impurities ([9]; 25° C./60 % RH, 6 months, listed as Nintedanib HCl salt): 0.46%
Total impurities ([9]; 25° C./60 % RH, Initial): 0.29%
Weight loss ([9]; 25° C./60 % RH, Initial, listed as Nintedanib HCl salt): 0.82%
Polymorphic form ([9]; 40° C./75% RH, 1 week): Pattern 1
Total impurities ([9]; 40° C./75% RH, 1 week, listed as Nintedanib HCl salt): 0.39%
Polymorphic form [9, 17]: Pattern 1
Total impurities [9, 17]: 0.37%
Total impurities ([9]; 40° C./75% RH, 4 weeks): 0.34%
Polymorphic form ([9]; 40° C./75% RH, 4 weeks, listed as Nintedanib HCl salt): Pattern 1
Polymorphic form [9, 18]: Pattern 1
Total impurities [9, 18]: 0.52%
Polymorphic form ([9]; 40° C./75% RH, Initial): Pattern 1
Total impurities ([9]; 40° C./75% RH, Initial): 0.29%
Weight loss ([9]; 40° C./75% RH, Initial, listed as Nintedanib HCl salt): 0.82%
visual appearance after filtration ([10]; 0.22 μm PES filter): light precipitation after 2 weeks
visual appearance after filtration ([10]; 0.22 μm PVDF filter): precipitated shortly after filtration
visual appearance after filtration ([10]; 0.22 μm nylon filter): no change in appearance through 1 month
Visual appearance ([10]; PTFE filter, 1 month): Precipitation
Visual appearance ([10]; PTFE filter, 1 week): Precipitation
Visual appearance ([10]; PTFE filter, 2 weeks): Precipitation
Visual appearance ([10]; PVFD filter, 1 month): Precipitation
Visual appearance ([10]; PVFD filter, 1 week): Precipitation
Visual appearance ([10]; PVFD filter, 2 weeks): Precipitation
Visual appearance ([10]; PVFD filter, Initial): Precipitation
compatibility with NaCl [11]: not compatible
half-life [12]: ~4 min
